Measured values as given in ChEMBL document CHEMBL1201862, “PubChem BioAssay data set” (2004).
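Following 48 hours of exposure in 96-well plates, responses at five concentrations were used to interpolate endpoints linearly. Here, GI50 denotes the concentration required for 50% inhibition of growth.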 Activity calls are given as the source filed them. Cut-off read from the data, not from the text of the source: active = GI50 up to about 1.1 µM and inactive = higher.

Key:
Test in all cases: DTP human tumour cell line panel, 48 h
PC-3 = tested on: PC-3
IGROV-1 = tested on: IGROV-1
NCI/ADR-RES = tested on: NCI/ADR-RES
NCI-H522 = tested on: NCI-H522
SNB-75 = tested on: SNB-75
HT-29 = tested on: HT-29
HCC 2998 = tested on: HCC 2998
MDA-N = tested on: MDA-N
M14 = tested on: M14
Malme-3M = tested on: Malme-3M
TK-10 = tested on: TK-10
NCI-H23 = tested on: NCI-H23
KM12 = tested on: KM12
SK-MEL-5 = tested on: SK-MEL-5
HL-60 = tested on: HL-60
T47D = tested on: T47D
ACHN = tested on: ACHN
MDA-MB-231 = tested on: MDA-MB-231
OVCAR-3 = tested on: OVCAR-3
SN12C = tested on: SN12C

SMILES	GI50 (PC-3)	GI50 (IGROV-1)	GI50 (NCI/ADR-RES)	GI50 (NCI-H522)	GI50 (SNB-75)	GI50 (HT-29)	GI50 (HCC 2998)	GI50 (MDA-N)	GI50 (M14)	GI50 (Malme-3M)	GI50 (TK-10)	GI50 (NCI-H23)	GI50 (KM12)	GI50 (SK-MEL-5)	GI50 (HL-60)	GI50 (T47D)	GI50 (ACHN)	GI50 (MDA-MB-231)	GI50 (OVCAR-3)	GI50 (SN12C)
C#C[C@]1(O)[C@@H](CO)O[C@@H](n2ccc(N)nc2=O)[C@@H]1O	0.0352 µM (active)	0.028 µM (active)	< 0.0317 µM (active)	< 0.01 µM (active)	0.0327 µM (active)	< 0.0149 µM (active)	< 0.0135 µM (active)	0.0121 µM (active)	0.107 µM (active)	0.0337 µM (active)	0.0224 µM (active)	0.0902 µM (active)	< 0.0127 µM (active)	0.0139 µM (active)	< 0.0147 µM (active)	< 0.015 µM (active)	< 0.01 µM (active)	0.0908 µM (active)	0.132 µM (active)	< 0.01 µM (active)
O=C(NCCCCCCNC(=O)n1cc(F)c(=O)[nH]c1=O)NCCCOCCOCCOCCOCCOCCOCCOCCOCCOCCOCCOCCOCCOCCOCCOCCOCCOCCOCCOCCOCCOCCCNC(=O)C(O)C(O)C(O)C(O)CO (stereo not drawn)	64.3 µM (inactive)	60.1 µM (inactive)	69.8 µM (inactive)	> 90.2 µM (inactive)	73.1 µM (inactive)	17.5 µM (inactive)	5.66 µM (inactive)	33.9 µM (inactive)	75.3 µM (inactive)	20.2 µM (inactive)	15.6 µM (inactive)	32.8 µM (inactive)	31.7 µM (inactive)	51.9 µM (inactive)	20.8 µM (inactive)	> 100 µM (inactive)	26.7 µM (inactive)	> 100 µM (inactive)	55.5 µM (inactive)	80 µM (inactive)
S=C=Nc1ccc(CSc2nc3ccccc3[nH]2)cc1	17.9 µM (inactive)	18.2 µM (inactive)	18 µM (inactive)	4.25 µM (inactive)	12.9 µM (inactive)	18.4 µM (inactive)	18.1 µM (inactive)	15.9 µM (inactive)	–	17.6 µM (inactive)	20.1 µM (inactive)	17.6 µM (inactive)	17.5 µM (inactive)	15.9 µM (inactive)	36.5 µM (inactive)	15.2 µM (inactive)	14.3 µM (inactive)	23.3 µM (inactive)	–	17.5 µM (inactive)
O=C(C=P(c1ccccc1)(c1ccccc1)c1ccccc1)C12CC3CC(CC(C3)C1)C2	11.7 µM (inactive)	16 µM (inactive)	16.5 µM (inactive)	6.55 µM (inactive)	16.9 µM (inactive)	11.2 µM (inactive)	16.8 µM (inactive)	14.3 µM (inactive)	16 µM (inactive)	19.2 µM (inactive)	11.8 µM (inactive)	16.7 µM (inactive)	15 µM (inactive)	14.8 µM (inactive)	8.75 µM (inactive)	16.1 µM (inactive)	16.2 µM (inactive)	15.7 µM (inactive)	14.9 µM (inactive)	15.9 µM (inactive)
[O-][n+]1onc2c1/C(=N/O)CCC2	> 100 µM (inactive)	> 100 µM (inactive)	> 100 µM (inactive)	> 100 µM (inactive)	> 100 µM (inactive)	> 100 µM (inactive)	> 100 µM (inactive)	> 100 µM (inactive)	> 100 µM (inactive)	> 100 µM (inactive)	> 100 µM (inactive)	> 100 µM (inactive)	> 100 µM (inactive)	> 100 µM (inactive)	> 100 µM (inactive)	> 100 µM (inactive)	> 100 µM (inactive)	> 100 µM (inactive)	> 100 µM (inactive)	> 100 µM (inactive)
CCN(CC)CCCNc1c2cc(OC)ccc2nc2cccc([N+](=O)[O-])c12	0.0543 µM (active)	0.102 µM (active)	0.274 µM (active)	0.00658 µM (active)	0.151 µM (active)	0.0456 µM (active)	0.0655 µM (active)	0.129 µM (active)	0.0938 µM (active)	0.118 µM (active)	0.195 µM (active)	0.0746 µM (active)	0.11 µM (active)	0.0935 µM (active)	0.158 µM (active)	0.151 µM (active)	0.0407 µM (active)	0.122 µM (active)	0.034 µM (active)	0.11 µM (active)
CCOC(=O)C1=NN(c2ccc(C)cc2)C2(c3ccccc3)C=C(c3ccccc3)N(C)CCN12 (stereo not drawn)	> 100 µM (inactive)	> 100 µM (inactive)	> 100 µM (inactive)	> 100 µM (inactive)	> 100 µM (inactive)	> 100 µM (inactive)	82.4 µM (inactive)	> 100 µM (inactive)	> 100 µM (inactive)	> 100 µM (inactive)	> 100 µM (inactive)	> 100 µM (inactive)	48.5 µM (inactive)	> 100 µM (inactive)	30.7 µM (inactive)	> 100 µM (inactive)	> 100 µM (inactive)	> 100 µM (inactive)	> 100 µM (inactive)	> 100 µM (inactive)
